Experimental data reported in ChEMBL document CHEMBL1127815, “Homodimeric and heterodimeric bis(amino thiol) oxometal complexes with rhenium(V) and technetium(V). Control of heterodimeric complex formation and an approach to metal complexes that mimic steroid hormones” (J Med Chem, 1994).

How the values were obtained:
Rattus norvegicus [1] = experiment: Biodistribution in Sprague-Darwley rat muscle at 30 min after intravenous administration of 70g; type: ADME, organism-based, Muscle tissue; settings: in vivo, 0.5 h
Rattus norvegicus [2] = experiment: Biodistribution in Sprague-Darwley rat liver at 15 min after intravenous administration of 70g; type: ADME, organism-based; settings: in vivo, 0.25 h
Rattus norvegicus [3] = experiment: Biodistribution in Sprague-Darwley rat rest of brain at 30 min after intravenous administration of 70g; type: ADME, organism-based; settings: in vivo, 0.5 h
Rattus norvegicus [4] = experiment: Biodistribution in Sprague-Darwley rat kidney at 2 min after intravenous administration of 70g; type: ADME, organism-based; settings: in vivo
Rattus norvegicus [5] = experiment: Biodistribution in Sprague-Darwley rat fat at 60 min after intravenous administration of 70g; type: ADME, organism-based, Adipose tissue; settings: in vivo, 1 h
Rattus norvegicus [6] = experiment: Biodistribution in Sprague-Darwley rat kidney at 60 min after intravenous administration of 70g; type: ADME, organism-based; settings: in vivo, 1 h
Rattus norvegicus [7] = experiment: Biodistribution in Sprague-Darwley rat lung at 60 min after intravenous administration of 70g; type: ADME, organism-based; settings: in vivo, 1 h
Rattus norvegicus [8] = experiment: Biodistribution in Sprague-Darwley rat rest of brain at 2 min after intravenous administration of 70g; type: ADME, organism-based; settings: in vivo
Rattus norvegicus [9] = experiment: Biodistribution in Sprague-Darwley rat heart at 120 min after intravenous administration of 70g; type: ADME, organism-based; settings: in vivo, 2 h
Rattus norvegicus [10] = experiment: Biodistribution in Sprague-Darwley rat liver at 60 min after intravenous administration of 70g; type: ADME, organism-based; settings: in vivo, 1 h
Rattus norvegicus [11] = experiment: Biodistribution in Sprague-Darwley rat fat at 15 min after intravenous administration of 70g; type: ADME, organism-based, Adipose tissue; settings: in vivo, 0.25 h
Rattus norvegicus [12] = experiment: Biodistribution in Sprague-Darwley rat kidney at 30 min after intravenous administration of 70g; type: ADME, organism-based; settings: in vivo, 0.5 h
Rattus norvegicus [13] = experiment: Biodistribution in Sprague-Darwley rat liver at 2 min after intravenous administration of 70g; type: ADME, organism-based; settings: in vivo
Rattus norvegicus [14] = experiment: Biodistribution in Sprague-Darwley rat blood at 15 min after intravenous administration of 70g; type: ADME, organism-based; settings: in vivo, 0.25 h
Rattus norvegicus [15] = experiment: Biodistribution in Sprague-Darwley rat rest of brain at 120 min after intravenous administration of 70g; type: ADME, organism-based; settings: in vivo, 2 h
Rattus norvegicus [16] = experiment: Biodistribution in Sprague-Darwley rat heart at 60 min after intravenous administration of 70g; type: ADME, organism-based; settings: in vivo, 1 h
Rattus norvegicus [17] = experiment: Biodistribution in Sprague-Darwley rat liver at 120 min after intravenous administration of 70g; type: ADME, organism-based; settings: in vivo, 2 h
Rattus norvegicus [18] = experiment: Biodistribution in Sprague-Darwley rat heart at 30 min after intravenous administration of 70g; type: ADME, organism-based; settings: in vivo, 0.5 h
Rattus norvegicus [19] = experiment: Biodistribution in Sprague-Darwley rat kidney at 15 min after intravenous administration of 70g; type: ADME, organism-based; settings: in vivo, 0.25 h
Rattus norvegicus [20] = experiment: Biodistribution in Sprague-Darwley rat liver at 30 min after intravenous administration of 70g; type: ADME, organism-based; settings: in vivo, 0.5 h
Rattus norvegicus [21] = experiment: Biodistribution in Sprague-Darwley rat rest of brain at 60 min after intravenous administration of 70g; type: ADME, organism-based; settings: in vivo, 1 h
Rattus norvegicus [22] = experiment: Biodistribution in Sprague-Darwley rat blood at 120 min after intravenous administration of 70g; type: ADME, organism-based; settings: in vivo, 2 h
Rattus norvegicus [23] = experiment: Biodistribution in Sprague-Darwley rat muscle at 15 min after intravenous administration of 70g; type: ADME, organism-based, Muscle tissue; settings: in vivo, 0.25 h
Rattus norvegicus [24] = experiment: Biodistribution in Sprague-Darwley rat lung at 15 min after intravenous administration of 70g; type: ADME, organism-based; settings: in vivo, 0.25 h
Rattus norvegicus [25] = experiment: Biodistribution in Sprague-Darwley rat blood at 30 min after intravenous administration of 70g; type: ADME, organism-based; settings: in vivo, 0.5 h
Rattus norvegicus [26] = experiment: Biodistribution in Sprague-Darwley rat fat at 30 min after intravenous administration of 70g; type: ADME, organism-based, Adipose tissue; settings: in vivo, 0.5 h
Rattus norvegicus [27] = experiment: Biodistribution in Sprague-Darwley rat muscle at 2 min after intravenous administration of 70g; type: ADME, organism-based, Muscle tissue; settings: in vivo
Rattus norvegicus [28] = experiment: Biodistribution in Sprague-Darwley rat lung at 120 min after intravenous administration of 70g; type: ADME, organism-based; settings: in vivo, 2 h
Rattus norvegicus [29] = experiment: Biodistribution in Sprague-Darwley rat blood at 60 min after intravenous administration of 70g; type: ADME, organism-based; settings: in vivo, 1 h
Rattus norvegicus [30] = experiment: Biodistribution in Sprague-Darwley rat lung at 30 min after intravenous administration of 70g; type: ADME, organism-based; settings: in vivo, 0.5 h
Rattus norvegicus [31] = experiment: Biodistribution in Sprague-Darwley rat rest of brain at 15 min after intravenous administration of 70g; type: ADME, organism-based; settings: in vivo, 0.25 h
Rattus norvegicus [32] = experiment: Biodistribution in Sprague-Darwley rat muscle at 120 min after intravenous administration of 70g; type: ADME, organism-based, Muscle tissue; settings: in vivo, 2 h
Rattus norvegicus [33] = experiment: Biodistribution in Sprague-Darwley rat kidney at 120 min after intravenous administration of 70g; type: ADME, organism-based; settings: in vivo, 2 h
Rattus norvegicus [34] = experiment: Biodistribution in Sprague-Darwley rat lung at 2 min after intravenous administration of 70g; type: ADME, organism-based; settings: in vivo
Rattus norvegicus [35] = experiment: Biodistribution in Sprague-Darwley rat heart at 2 min after intravenous administration of 70g; type: ADME, organism-based; settings: in vivo
Rattus norvegicus [36] = experiment: Biodistribution in Sprague-Darwley rat muscle at 60 min after intravenous administration of 70g; type: ADME, organism-based, Muscle tissue; settings: in vivo, 1 h
Rattus norvegicus [37] = experiment: Biodistribution in Sprague-Darwley rat fat at 120 min after intravenous administration of 70g; type: ADME, organism-based, Adipose tissue; settings: in vivo, 2 h
Rattus norvegicus [38] = experiment: Biodistribution in Sprague-Darwley rat blood at 2 min after intravenous administration of 70g; type: ADME, organism-based; settings: in vivo
Rattus norvegicus [39] = experiment: Biodistribution in Sprague-Darwley rat heart at 15 min after intravenous administration of 70g; type: ADME, organism-based; settings: in vivo, 0.25 h
Rattus norvegicus [40] = experiment: Biodistribution in Sprague-Darwley rat fat at 2 min after intravenous administration of 70g; type: ADME, organism-based, Adipose tissue; settings: in vivo

In the case of “[N-(2-Mercapto-2-methylpropyl)-N-(4-methoxyphenyl)-aminato][2-(mercaptomethyl)pyridinato]oxotechnetium V”, the ID/g (Rattus norvegicus [1]) is reported as 0.255%, the ID/g (Rattus norvegicus [2]) is reported as 3.69% and the ID/g (Rattus norvegicus [3]) is reported as 0.283%. For the same substance, the ID/g (Rattus norvegicus [4]) was 3.117%, the ID/g (Rattus norvegicus [5]) was 1.071% and the ID/g (Rattus norvegicus [6]) was 1.281%. For the same substance, the ID/g (Rattus norvegicus [7]) was 0.344%, the ID/g (Rattus norvegicus [8]) was 1.346% and the ID/g (Rattus norvegicus [9]) was 0.151%. The ID/g (Rattus norvegicus [10]) was 3.309%, the ID/g (Rattus norvegicus [11]) was 0.511% and the ID/g (Rattus norvegicus [12]) was 1.075%. The ID/g (Rattus norvegicus [13]) was 4.121%, the ID/g (Rattus norvegicus [14]) was 0.316% and the ID/g (Rattus norvegicus [15]) was 0.128%. The ID/g (Rattus norvegicus [16]) was 0.305%, the ID/g (Rattus norvegicus [17]) was 2.892% and the ID/g (Rattus norvegicus [18]) was 0.386%. The ID/g (Rattus norvegicus [19]) was 1.291%, the ID/g (Rattus norvegicus [20]) was 2.987% and the ID/g (Rattus norvegicus [21]) was 0.185%. For the same substance, the ID/g (Rattus norvegicus [22]) was 0.192%, the ID/g (Rattus norvegicus [23]) was 0.379% and the ID/g (Rattus norvegicus [24]) was 0.83%. For the same substance, the ID/g (Rattus norvegicus [25]) was 0.213%, the ID/g (Rattus norvegicus [26]) was 0.297% and the ID/g (Rattus norvegicus [27]) was 0.364%. For the same substance, the ID/g (Rattus norvegicus [28]) was 0.224%, the ID/g (Rattus norvegicus [29]) was 0.202% and the ID/g (Rattus norvegicus [30]) was 0.434%. For the same substance, the ID/g (Rattus norvegicus [31]) was 0.63%, the ID/g (Rattus norvegicus [32]) was 0.107% and the ID/g (Rattus norvegicus [33]) was 1.779%. For the same substance, the ID/g (Rattus norvegicus [34]) was 4.24%, the ID/g (Rattus norvegicus [35]) was 3.285% and the ID/g (Rattus norvegicus [36]) was 0.167%. For the same substance, the ID/g (Rattus norvegicus [37]) was 1.128%, the ID/g (Rattus norvegicus [38]) was 0.681% and the ID/g (Rattus norvegicus [39]) was 0.721%. It also gave an ID/g (Rattus norvegicus [40]) of 0.241%.
